4 compounds from ChEMBL document CHEMBL1158110, “Chaetopyranin, a benzaldehyde derivative, and other related metabolites from Chaetomium globosum, an endophytic fungus derived from the marine red alga Polysiphonia urceolata” (J Nat Prod, 2006) can be followed below.

≈ marks a conversion by molar mass, not a printed value.

Test [1] concerns Radical scavenging activity. As to the kind of experiment: Antioxidant activity assessed as DPPH free radical scavenging activity. Format: functional.
The subject of the next test is A549. As to the kind of experiment: Cytotoxicity against human A549 cells. Format: functional, cell-based.
For another test, the system named is HMEC. Nature of the test: Cytotoxicity against HMEC. Format: cell-based. Conditions: Homo sapiens.
A further test concerns SMMC-7721. As to the kind of experiment: Cytotoxicity against human SMMC7721 cells. Format: functional, cell-based.

In the case of `CCC/C=C/c1cc2c(C=O)c(O)c(CC=C(C)C)cc2o1`, the 50% inhibitory concentration (IC50) (as a rule, the concentration needed to halve the response being measured) in test [1] is 88 µg/mL (≈ 295 µM).

On to `CC(C)=CCc1cc2c(c(C=O)c1O)CCC(/C=C/C(C)O)O2` (configuration not stated) [CHAETOPYRANIN], for which the IC50 in the test with A549 was 39.1 µg/mL (≈ 124 µM); with HMEC, 15.4 µg/mL (≈ 48.7 µM); in the test on SMMC-7721, 28.5 µg/mL (≈ 90.1 µM); in test [1] it was 35 µg/mL (≈ 111 µM).

Regarding `C/C=C/CCCCc1c(O)cc(CC=C(C)C)c(O)c1C=O` [ISOTETRAHYDROAUROGLAUCIN], in test [1], the IC50 was found to be 26 µg/mL (≈ 86 µM).

Consider `COc1cc(O)c2c(c1)C(=O)c1c(O)c(C)cc(O)c1C2=O` [PARIETIN], for which, in test [1], the IC50 is 62 µg/mL (≈ 206 µM).
